# From patent US9029567B2, “Hypoglycemic compounds” (Cadila Pharmaceuticals Limited, priority 2010, dated 2015)
# Test system: Wistar female rats
# Experiment: Oral Glucose Tolerance Test in animals (in vivo screening of hypoglycemic effect)
# Conditions: three experiments; for % change in glucose level (Mean ± SEM) 30 Min: 30 min after glucose (2 gm/Kg, given 3 hrs after compound), oral equimolar dose (Sitagliptin 9.0, CPL-2009-0030 11.28, CPL-2009-0031 12.0 mg/kg), no treatment 199 ± 5; for % change in glucose level (Mean ± SEM) 1 Hr: 1 hr after glucose (2 gm/Kg, given 3 hrs after compound), no treatment 154 ± 4; for % change in glucose level (Mean ± SEM) 1 Hr / % change in glucose level (Mean ± SEM) 2 hr: oral equimolar dose; for % change in glucose level (Mean ± SEM) 2 hr: 2 hr after glucose (2 gm/Kg, given 3 hrs after compound), no treatment 122 ± 5
# Protocol: The efficacy compound CPL-2009-0030 and CPL-2009-0031 were prepared as per present invention. They were evaluated through Oral Glucose Tolerance Test in animals. Each group consist of 10-12 weeks old Wistar female rats. The animals were divided into 4 different groups of 6 animals per group. The group I received vehical (WFI Placebo), Group II received Sitagliptin as positive control, Group III received CPL-2009-0030 and Group IV received CPL-2009-0031. All animals had over night fasting.
# The drug was administrated as per table 01 at 0 hour to all the study group animals with 10 mL/kg of dose volume. The compounds were administered orally. The glucose (2 gm/Kg body weight) was administered 3 hrs after the administration of compounds. Blood glucose was measured at the time of administration of compound, glucose and 30 min, 1 hr, 2 hr, 3 hr and 4 hr after the glucose administration. […] The rise was maximum at 30 min after glucose administration. […] The difference between no treatment group and other three groups is maximum at 30 min and it decreases over time (FIG. 1). […] Thus, the compound of present invention reduces hyperglycaemic effect of glucose without inducing hypoglycaemia. In other words, compounds of present invention provide hypoglycaemic effect only to reduce post-prandial hyperglycaemia without inducing fasting hypoglycaemia.
# To confirm the finding the experiment was repeated three times and the percentage change in glucose level over time of three experiments is presented in table 02. The repeat experiments also confirm the findings.
Structure (SMILES),% change in glucose level (Mean ± SEM) 30 Min [%],% change in glucose level (Mean ± SEM) 1 Hr [%],% change in glucose level (Mean ± SEM) 2 hr [%]
CCC(C)C(N)C(=O)NC(CC(=O)N1CCn2c(nnc2C(F)(F)F)C1)Cc1cc(F)c(F)cc1F (stereo not drawn) [CPL-2009-0030],145 ± 13,127 ± 6,108 ± 5
"N[C@@H](CC(=O)N1CCn2c(nnc2C(F)(F)F)C1)Cc1cc(F)c(F)cc1F [Sitagliptin, reference compound]",149 ± 5,130 ± 4,109 ± 2
NC(Cc1ccccc1)C(=O)NC(CC(=O)N1CCn2c(nnc2C(F)(F)F)C1)Cc1cc(F)c(F)cc1F (stereo not drawn) [CPL-2009-0031],125 ± 3,123 ± 4,110 ± 3
